Test results published in patent US20220170029A1, “APPLICATION OF NAT1 GENE AS SCREENING MARKER IN GENETIC TRANSFORMATION OF OOMYCETE” (priority 2021, published 2022).

Tests used:
Phytophthora sojae = conditions: oomycete carrying encoding gene of mutated protein; cited from earlier work
[1] = tested on: Avh109 gene complemented transformants of Phytophthora sojae (Nat1 gene as selection marker); experiment: Growth on nourseothricin-containing V8 culture medium, candidate transformants carrying the Nat1 gene; type: cell-based; conditions: 50 μg/mL nourseothricin; 15 candidate transformants with Nat1 gene
Protocol: (S2) After the centrifugation, the supernatant was discarded. Then 5 mL of PM culture medium were added into the centrifuge tube to resuspend the regenerated hypha. After that, 5 mL of 30 μg/mL nourseothricin-containing PM culture medium were added into the centrifuge tube, and mixed to be poured into a petri dish. Then the petri dish was subjected to drying, and culturing at 25° C. in dark for 3-4 days to perform primary screening.
(S3) The growth condition of hyphae on the surface of the petri dish was observed. 10 mL of 50 μg/mL nourseothricin-containing V8 culture medium were added into the petri dish, and cultured at 25° C. in the dark for 3-4 days to perform secondary screening.
(S4) The growth condition of hyphae on the surface of the petri dish was observed. The regenerated strain was transferred to the 50 μg/mL nourseothricin-containing V8 culture medium to perform tertiary screening. After three screenings in the presence of nourseothricin, 15 transformants were obtained, which were preliminarily considered to be complemented transformants (candidate transformants) for subsequent identification.
(§1) The 15 candidate transformants screened in Example 1 were transformed to the 50 μg/mL nourseothricin-containing V8 culture medium to observe the growth condition of the 15 candidate transformants, and the wide-type Phytophthora sojae is used as a control strain.

[2] = tested on: wide-type Phytophthora sojae; experiment: Growth on nourseothricin-containing V8 culture medium, control strain; type: cell-based; conditions: 50 μg/mL nourseothricin, grows on V8 medium without nourseothricin
Protocol: as §1

Compound	resistance to oxathiapiprolin induced in the oomycete by the mutated protein (Phytophthora sojae)	growth condition on nourseothricin-containing V8 medium [1]	growth condition on nourseothricin-containing V8 medium [2]
Cc1cc(C(F)(F)F)nn1CC(=O)N1CCC(c2nc(C3=NOC(c4c(F)cccc4F)C3)cs2)CC1 (stereo not drawn) [oxathiapiprolin]	more than 500 times	–	–
nourseothricin	–	able to grow normally	not able to grow
